Measurements from PubChem BioAssay AID1745844 (Carcinogenic Potency Database (CPDB), 2022).
Active and inactive are the calls of the source. No rule for the calls is given here.

System: rodent lifetime carcinogenesis bioassay, tumor incidence TD50
Test: carcinogenic potency in animals, long-term in vivo studies, CPDB compilation (AID 1745844)

Work on `Cc1ccc(N=C=O)cc1N=C=O` yielded a TD50 (mouse, strain B6C3F1, females, by gavage, site: abdominal cavity + liver + ovary + spleen + subcutaneous tissue, lesion: hemangiosarcoma + hemangioma, dosed 105 weeks, study length 107 weeks) of 580 mg/kg/day, a TD50 (mouse, strain B6C3F1, females, by gavage, site: abdominal cavity + liver + ovary + spleen + subcutaneous tissue, lesion: hemangiosarcoma + hepatocellular adenoma + hemangioma, dosed 105 weeks, study length 107 weeks) of 181 mg/kg/day and a TD50 (mouse, strain B6C3F1, females, by gavage, site: abdominal cavity + liver + ovary, lesion: hemangiosarcoma, dosed 105 weeks, study length 107 weeks) of 1200 mg/kg/day. It also gave a TD50 (mouse, strain B6C3F1, females, by gavage, site: any site (literature study), lesion: several types, types named in the paper, dosed 105 weeks, study length 107 weeks) of 305 mg/kg/day, a TD50 (mouse, strain B6C3F1, females, by gavage, site: liver, lesion: hepatocellular adenoma + hepatocellular carcinoma + neoplastic nodule, dosed 105 weeks, study length 107 weeks) of 215 mg/kg/day and a TD50 (mouse, strain B6C3F1, females, by gavage, site: liver, lesion: hepatocellular adenoma + hepatocellular carcinoma, dosed 105 weeks, study length 107 weeks) of 215 mg/kg/day. The TD50 (mouse, strain B6C3F1, females, by gavage, site: liver, lesion: hepatocellular adenoma, dosed 105 weeks, study length 107 weeks) was 250 mg/kg/day, the TD50 (mouse, strain B6C3F1, females, by gavage, site: lung, lesion: alveolar/bronchiolar adenoma + alveolar/bronchiolar carcinoma, dosed 105 weeks, study length 107 weeks) was 815 mg/kg/day and the TD50 (mouse, strain B6C3F1, males, by gavage, site: any site (literature study), lesion: several types, types named in the paper, dosed 105 weeks, study length 107 weeks) was 253 mg/kg/day (inactive). For the same compound, the TD50 (mouse, strain B6C3F1, males, by gavage, site: lung, lesion: alveolar/bronchiolar adenoma + alveolar/bronchiolar carcinoma, dosed 105 weeks, study length 107 weeks) was 1920 mg/kg/day, the carcinogen call (mouse, strain Charles River CD1, females, inhaled, site: any site (literature study), lesion: benign tumor, dosed 104 weeks, study length 104 weeks) was “negative (inactive)” and the carcinogen call (mouse, strain Charles River CD1, females, inhaled, site: any site (literature study), lesion: malignant tumor, dosed 104 weeks, study length 104 weeks) was “negative (inactive)”. For the same compound, the carcinogen call (mouse, strain Charles River CD1, females, inhaled, site: any site (literature study), lesion: several types, types named in the paper, dosed 104 weeks, study length 104 weeks) was “negative (inactive)”, the carcinogen call (mouse, strain Charles River CD1, females, inhaled, site: liver, lesion: hepatocellular adenoma, dosed 104 weeks, study length 104 weeks) was “negative (inactive)” and the carcinogen call (mouse, strain Charles River CD1, females, inhaled, site: liver, lesion: hepatocellular carcinoma, dosed 104 weeks, study length 104 weeks) was “negative (inactive)”. For the same compound, the carcinogen call (mouse, strain Charles River CD1, females, inhaled, site: lung, lesion: adenoma, dosed 104 weeks, study length 104 weeks) was “negative (inactive)”, the carcinogen call (mouse, strain Charles River CD1, females, inhaled, site: lung, lesion: carcinoma, dosed 104 weeks, study length 104 weeks) was “negative (inactive)” and the carcinogen call (mouse, strain Charles River CD1, males, inhaled, site: any site (literature study), lesion: benign tumor, dosed 104 weeks, study length 104 weeks) was “negative (inactive)”. The carcinogen call (mouse, strain Charles River CD1, males, inhaled, site: any site (literature study), lesion: malignant tumor, dosed 104 weeks, study length 104 weeks) was “negative (inactive)”, the TD50 (mouse, strain Charles River CD1, males, inhaled, site: any site (literature study), lesion: several types, types named in the paper, dosed 104 weeks, study length 104 weeks) was 1.63 mg/kg/day (inactive) and the carcinogen call (mouse, strain Charles River CD1, males, inhaled, site: liver, lesion: hepatocellular adenoma, dosed 104 weeks, study length 104 weeks) was “negative (inactive)”. For the same compound, the carcinogen call (mouse, strain Charles River CD1, males, inhaled, site: liver, lesion: hepatocellular carcinoma, dosed 104 weeks, study length 104 weeks) was “negative (inactive)”, the TD50 (mouse, strain Charles River CD1, males, inhaled, site: lung, lesion: adenoma, dosed 104 weeks, study length 104 weeks) was 0.3 mg/kg/day (inactive) and the carcinogen call (mouse, strain Charles River CD1, males, inhaled, site: lung, lesion: carcinoma, dosed 104 weeks, study length 104 weeks) was “negative (inactive)”. For the same compound, the carcinogen call (rat, strain Charles River CD (Sprague-Dawley), females, inhaled, site: any site (literature study), lesion: benign tumor, dosed 108 weeks, study length 108 weeks) was “negative (inactive)”, the TD50 (rat, strain Charles River CD (Sprague-Dawley), females, inhaled, site: any site (literature study), lesion: malignant tumor, dosed 108 weeks, study length 108 weeks) was 1.09 mg/kg/day (inactive) and the carcinogen call (rat, strain Charles River CD (Sprague-Dawley), females, inhaled, site: any site (literature study), lesion: several types, types named in the paper, dosed 108 weeks, study length 108 weeks) was “negative (inactive)”. The TD50 (rat, strain Charles River CD (Sprague-Dawley), females, inhaled, site: liver, lesion: hepatocellular carcinoma, dosed 108 weeks, study length 108 weeks) was 8.24 mg/kg/day (inactive), the carcinogen call (rat, strain Charles River CD (Sprague-Dawley), males, inhaled, site: any site (literature study), lesion: benign tumor, dosed 110 weeks, study length 110 weeks) was “negative (inactive)” and the TD50 (rat, strain Charles River CD (Sprague-Dawley), males, inhaled, site: any site (literature study), lesion: malignant tumor, dosed 110 weeks, study length 110 weeks) was 6.18 mg/kg/day (inactive). For the same compound, the carcinogen call (rat, strain Charles River CD (Sprague-Dawley), males, inhaled, site: any site (literature study), lesion: several types, types named in the paper, dosed 110 weeks, study length 110 weeks) was “negative (inactive)”, the carcinogen call (rat, strain Charles River CD (Sprague-Dawley), males, inhaled, site: liver, lesion: hepatocellular carcinoma, dosed 110 weeks, study length 110 weeks) was “negative (inactive)” and the TD50 (rat, strain Fischer 344, females, by gavage, site: adrenal gland, lesion: cortical adenoma, dosed 106 weeks, study length 108 weeks) was 174 mg/kg/day. The TD50 (rat, strain Fischer 344, females, by gavage, site: adrenal gland, lesion: pheochromocytoma, dosed 106 weeks, study length 108 weeks) was 143 mg/kg/day, the TD50 (rat, strain Fischer 344, females, by gavage, site: any site (literature study), lesion: several types, types named in the paper, dosed 106 weeks, study length 108 weeks) was 25.1 mg/kg/day and the TD50 (rat, strain Fischer 344, females, by gavage, site: clitoral gland, lesion: adenoma, NOS, dosed 106 weeks, study length 108 weeks) was 260 mg/kg/day. It also gave a TD50 (rat, strain Fischer 344, females, by gavage, site: liver + mammary gland + pancreatic islets + subcutaneous tissue, lesion: neoplastic nodule + fibroadenoma + islet-cell adenoma + fibrosarcoma + fibroma, dosed 106 weeks, study length 108 weeks) of 25.4 mg/kg/day, a TD50 (rat, strain Fischer 344, females, by gavage, site: liver, lesion: hepatocellular adenoma + hepatocellular carcinoma + neoplastic nodule, dosed 106 weeks, study length 108 weeks) of 92.2 mg/kg/day and a TD50 (rat, strain Fischer 344, females, by gavage, site: liver, lesion: neoplastic nodule, dosed 106 weeks, study length 108 weeks) of 92.2 mg/kg/day. For the same compound, the TD50 (rat, strain Fischer 344, females, by gavage, site: mammary gland, lesion: fibroadenoma, dosed 106 weeks, study length 108 weeks) was 33.4 mg/kg/day, the TD50 (rat, strain Fischer 344, females, by gavage, site: pancreatic islets, lesion: islet-cell adenoma + islet-cell carcinoma, dosed 106 weeks, study length 108 weeks) was 115 mg/kg/day and the TD50 (rat, strain Fischer 344, females, by gavage, site: pancreatic islets, lesion: islet-cell adenoma, dosed 106 weeks, study length 108 weeks) was 135 mg/kg/day. For the same compound, the TD50 (rat, strain Fischer 344, females, by gavage, site: pituitary gland, lesion: chromophobe adenoma + chromophobe carcinoma, dosed 106 weeks, study length 108 weeks) was 86.9 mg/kg/day, the TD50 (rat, strain Fischer 344, females, by gavage, site: pituitary gland, lesion: chromophobe adenoma, dosed 106 weeks, study length 108 weeks) was 77.3 mg/kg/day and the TD50 (rat, strain Fischer 344, females, by gavage, site: subcutaneous tissue, lesion: fibroma, dosed 106 weeks, study length 108 weeks) was 256 mg/kg/day. It also gave a TD50 (rat, strain Fischer 344, females, by gavage, site: subcutaneous tissue, lesion: fibrosarcoma + fibroma, dosed 106 weeks, study length 108 weeks) of 206 mg/kg/day, a TD50 (rat, strain Fischer 344, males, by gavage, site: any site (literature study), lesion: several types, types named in the paper, dosed 106 weeks, study length 108 weeks) of 18.4 mg/kg/day and a TD50 (rat, strain Fischer 344, males, by gavage, site: liver, lesion: hepatocellular adenoma + hepatocellular carcinoma + neoplastic nodule, dosed 106 weeks, study length 108 weeks) of 196 mg/kg/day. The TD50 (rat, strain Fischer 344, males, by gavage, site: pancreas + subcutaneous tissue, lesion: acinar-cell adenoma + fibrosarcoma + fibroma, dosed 106 weeks, study length 108 weeks) was 27.3 mg/kg/day, the TD50 (rat, strain Fischer 344, males, by gavage, site: pancreas, lesion: acinar-cell adenoma, dosed 106 weeks, study length 108 weeks) was 51.6 mg/kg/day and the TD50 (rat, strain Fischer 344, males, by gavage, site: pancreatic islets, lesion: islet-cell adenoma + islet-cell carcinoma, dosed 106 weeks, study length 108 weeks) was 201 mg/kg/day. It also gave a TD50 (rat, strain Fischer 344, males, by gavage, site: pituitary gland, lesion: chromophobe adenoma + chromophobe carcinoma, dosed 106 weeks, study length 108 weeks) of 83.7 mg/kg/day, a TD50 (rat, strain Fischer 344, males, by gavage, site: pituitary gland, lesion: chromophobe adenoma, dosed 106 weeks, study length 108 weeks) of 76.4 mg/kg/day and a TD50 (rat, strain Fischer 344, males, by gavage, site: subcutaneous tissue, lesion: fibroma, dosed 106 weeks, study length 108 weeks) of 56 mg/kg/day. The TD50 (rat, strain Fischer 344, males, by gavage, site: subcutaneous tissue, lesion: fibrosarcoma + fibroma, dosed 106 weeks, study length 108 weeks) was 34.1 mg/kg/day, the TD50 (rat, strain Fischer 344, males, by gavage, site: subcutaneous tissue, lesion: fibrosarcoma + osteosarcoma + sarcoma, NOS, dosed 106 weeks, study length 108 weeks) was 103 mg/kg/day and the TD50 (rat, strain Fischer 344, males, by gavage, site: subcutaneous tissue, lesion: fibrosarcoma, dosed 106 weeks, study length 108 weeks) was 92.4 mg/kg/day. For the same compound, the TD50 (rat, strain Fischer 344, males, by gavage, site: testis, lesion: interstitial-cell tumor + interstitial-cell tumor, malignant, dosed 106 weeks, study length 108 weeks) was 13.6 mg/kg/day.
For `FCC(F)(F)F`, the carcinogen call (mouse, strain B6C3F1, females, inhaled, site: liver, lesion: hepatocellular adenoma, dosed 104 weeks, study length 104 weeks) was “negative (inactive)”, the carcinogen call (mouse, strain B6C3F1, females, inhaled, site: liver, lesion: hepatocellular carcinoma, dosed 104 weeks, study length 104 weeks) was “negative (inactive)” and the carcinogen call (mouse, strain B6C3F1, females, inhaled, site: lung, lesion: alveolar/bronchiolar tumor, dosed 104 weeks, study length 104 weeks) was “negative (inactive)”. The TD50 (mouse, strain B6C3F1, males, inhaled, site: liver, lesion: hepatocellular adenoma, dosed 104 weeks, study length 104 weeks) was 1.5e+06 mg/kg/day (inactive), the TD50 (mouse, strain B6C3F1, males, inhaled, site: liver, lesion: hepatocellular carcinoma, dosed 104 weeks, study length 104 weeks) was 260000 mg/kg/day (inactive) and the carcinogen call (mouse, strain B6C3F1, males, inhaled, site: lung, lesion: alveolar/bronchiolar tumor, dosed 104 weeks, study length 104 weeks) was “negative (inactive)”. The TD50 (rat, strain Alpk:APfSD, males, inhaled, site: testis, lesion: Leydig-cell adenoma, dosed 104 weeks, study length 104 weeks) was 29900 mg/kg/day, the TD50 (rat, strain Han-Ibm Wistar, females, inhaled, site: liver, lesion: hepatocellular carcinoma, dosed 108 weeks, study length 108 weeks) was 2.8e+06 mg/kg/day (inactive) and the TD50 (rat, strain Han-Ibm Wistar, males, inhaled, site: liver, lesion: hepatocellular adenoma, dosed 108 weeks, study length 108 weeks) was 70100 mg/kg/day (inactive). The TD50 (rat, strain Han-Ibm Wistar, males, inhaled, site: liver, lesion: hepatocellular carcinoma, dosed 108 weeks, study length 108 weeks) was 140000 mg/kg/day (inactive) and the carcinogen call (rat, strain Han-Ibm Wistar, males, inhaled, site: testis, lesion: interstitial-cell tumor, dosed 108 weeks, study length 108 weeks) was “negative (inactive)”.
`C=Cc1cccc(C)c1` was tested, and the carcinogen call (mouse, strain B6C3F1, females, inhaled, site: any site (literature study), lesion: several types, types named in the paper, dosed 103 weeks, study length 104 weeks) was “negative (inactive)”, the TD50 (mouse, strain B6C3F1, females, inhaled, site: lung, lesion: alveolar/bronchiolar adenoma + alveolar/bronchiolar carcinoma, dosed 103 weeks, study length 104 weeks) was 750 mg/kg/day and the carcinogen call (mouse, strain B6C3F1, males, inhaled, site: any site (literature study), lesion: several types, types named in the paper, dosed 103 weeks, study length 104 weeks) was “negative (inactive)”. The TD50 (rat, strain Fischer 344, females, inhaled, site: any site (literature study), lesion: several types, types named in the paper, dosed 103 weeks, study length 104 weeks) was 312 mg/kg/day (inactive) and the carcinogen call (rat, strain Fischer 344, males, inhaled, site: any site (literature study), lesion: several types, types named in the paper, dosed 103 weeks, study length 104 weeks) was “negative (inactive)”.
`O=S(=O)(O)c1c(N=Nc2c(O)ccc3ccccc23)ccc2ccccc12` was tested, and the carcinogen call (rat, strain Osborne-Mendel, females, in feed, site: liver, lesion: adenoma, dosed 105 weeks, study length 105 weeks) was “negative (inactive)”, the TD50 (rat, strain Osborne-Mendel, females, in feed, site: pituitary gland, lesion: adenoma, dosed 105 weeks, study length 105 weeks) was 3560 mg/kg/day (inactive) and the carcinogen call (rat, strain Osborne-Mendel, males, in feed, site: liver, lesion: hepatocellular adenoma, dosed 105 weeks, study length 105 weeks) was “negative (inactive)”.
`NC1=NCN([C@@H]2O[C@H](CO)[C@@H](O)[C@H]2O)C(=O)N1` gave a TD50 (rat, strain Fischer 344, males, i.p., site: any site (literature study), lesion: one or several types, types not named, dosed 52 weeks, study length 52 weeks) of 20.7 mg/kg/day.
